Assays:
Assay type in all cases: physicochemical
[1] = In vitro drug release from silicone polymer matrix test samples in PBS pH 7.4 at 37° C., RPHPLC; details: 10% Travoprost matrix plug, PARYLENE about 0.68 μm, two 18G depot channels
Method: To test the controlled release properties of the disclosed drug-loaded silicone polymer matrices, the effects of a coating were examined. In these experiments, test samples were made as described in Example 1 to produce thin-disc-shaped drug-loaded polymer matrix. From this material, test samples were prepared by 1) cutting out rectangular polygons of about 3 mm length, about 1 mm width and about 1 mm height were cut from polymerized drug-loaded material; or 2) cutting out cylindrical plugs of about 3 mm length and having a diameter of about 0.5 mm to about 1 mm. The weight of the test samples were in the range about 0.1 mg to about 4 mg.
Certain of these cut test samples were then coated using one of three procedures. Cut test samples were coated with a polymer like poly(p-xylylene) (PARYLENE) to a thickness of about 0.10 μm to about 0.95 μm using a vapor phase deposition procedure. Similarly, cut test samples were coated a metal like titanium to a thickness of about 0.10 μm to about 0.95 μm using a vapor phase deposition procedure. Alternatively, cut test samples were physically wrapped with a tape like polytetrafluoroethylene tape and sealed using cyanoacrylate adhesive.
The presence of opening in a coated test sample was also examined. In these experiments, coated test samples were punctured to produce opening through the coating layer. From one to four opening were made using the tip of an 18G, 23G, 27G or 31G needle. Two types of opening were produced 1) surface pores which created openings only through the coating layer but left the polymer matrix intact; and 2) depot channels which created a tunnel through the entire coated test sample from one end to the other end.
To examine the drug release properties of a test sample, each sample was placed in 2 mL Eppendorf tube containing 1.5 mL of Phosphate Buffered Saline, pH 7.4 (PBS). These tubes were slowly rocked at 37° C. in an incubator. At given time points the PBS was completely removed from the tube and refilled with fresh PBS. An aliquot of the removed PBS was then analyzed by reversed phase HPLC (RPHPLC) to determine the amount of drug released from the test sample during the incubation period. In these experiments, a 10 μL injection of the test sample aliquot was run on an Agilent 1260 Infinity in a reverse phase isocratic mode using UV detection at 210 nm. The column was a Hypersil GOLD Phenyl column, (Dim. (mm) 250×4.6) and the mobile phase was a 1:1 mixture of acetonitrile to aqueous buffer (comprising HPLC grade water mixed with 5 mM ammonium acetate and 0.02% formic acid). The flow rate was 1.2 mL/min and column temperature was 22° C. Peak detection and quantitation was determined by establishing a calibration curve using known amounts of each drug tested and the amount of drug present in the test sample aliquot interpolated from this calibration curve using ChemStation software.

[2] = Korsmeyer-Peppas analysis of drug release data
Method: To confirm the results obtained based on the Higuchi equation analysis, the data above was also analyzed using the Korsmeyer-Peppas plot, which evaluates the mechanism of drug release by plotting the log of percent drug released over the log time in hours. If n equals 0.45, then Fickian diffusion is indicated for a cylinder (0.42 for cylinder of low aspect ratio). […] As exemplified FIG. 11, data is plotted as the log of cumulative percent drug released on the y-axis and the log time in hours on the x-axis.

[3] = Modified Higuchi plot (2A versus Q^2/T)
Method: Travoprost and Latanoprost are oily liquids at room temperature whereas Bimatoprost is a solid at room temperature. To determine whether the liquid versus solid phase of these drugs affects their release from the silicone polymer matrix, data was analyzed using an alternative plot based on the Higuchi equation where twice the drug loading value (2A) is plotted on the […] and the average slope of the plot of cumulative drug released squared versus time in hours (Q^2/T) is plotted on the […].

[4] = Chemical stability of prostaglandin analogues in PBS, RPHPLC; details: PBS at pH 4, 7 and 10; 4° C., 33° C. and 50° C.
Method: The chemical stability of prostaglandin analogues was also examined. In these experiments, a prostaglandin analogue was incubated in phospho-buffered saline (PBS) at pH 4, 7 and 10 and at 4° C., 33° C. and 50° C. representing long term storage, eye temperature and accelerate temperature conditions respectively. Analyses were performed by RPHPLC as described in Example 2, noting any hydrolysis products formed. […] This stability is most likely due to the amide linkage in Bimatoprost which is much more hydrolytically stable than the ester linkage in Latanoprost and Travoprost.

[5] = Release from post-loaded section of the drug delivery device (Example 5)
Method: A central section of a self-retaining implantable drug delivery device disclosed herein was loaded with Travoprost by cutting a 3 mm section of the device and then placed into 0.200 mL of hexanes for 3 hours. Following this period, the self-retaining implantable drug delivery device was placed immediately into 0.050 mL of a Travoprost stock solution 25 mg/mL in ethanol and allowed to stand overnight. The following day, this section was washed sequentially by dipping into a water bath, followed by a 10% acetonitrile bath. It was dried at 80 C and set to release the following day. The section was allowed to release over a period of 38 days. The loading was determined to be approximately 13 mcg. […] This release profile is predicted by the Higuchi mechanism. This type of loading procedure we term post loading. The loaded section is coated with a poly(p-xylylene) polymer and two tiny holes are place completely through the section. The section is then molded together with the two flanking sections of the stent to form the final product. The release from this modified stent follows a near zero order release in vitro and in vivo in preclinical animal models and clinical studies.

Daily Release Rate ([1]; day 1): 3.12 µg/day | Daily Release Rate ([1]; day 5): 2.21 µg/day | Daily Release Rate ([1]; day 13): 1.15 µg/day | Daily Release Rate ([1]; day 22): 1.29 µg/day | Daily Release Rate ([1]; day 26): 1.30 µg/day | Daily Release Rate ([1]; day 35): 1.16 µg/day | Daily Release Rate ([1]; day 43): 1.15 µg/day | Daily Release Rate ([1]; day 54): 1.35 µg/day | Daily Release Rate ([1]; day 63): 1.16 µg/day | Daily Release Rate ([1]; day 70): 1.20 µg/day | Daily Release Rate ([1]; day 83): 0.900 µg/day | Daily Release Rate ([1]; day 90): 0.882 µg/day | Daily Release Rate ([1]; day 97): 0.387 µg/day | Daily Release Rate ([1]; day 105): 0.891 µg/day | Daily Release Rate ([1]; day 111): 0.798 µg/day | Daily Release Rate ([1]; day 162): 0.557 µg/day | Average n Values, Korsmeyer-Peppas Analysis ([2]; Drug Loading 2.5%): 0.543± | Average n Values, Korsmeyer-Peppas Analysis ([2]; Drug Loading 5%): 0.507± | Average n Values, Korsmeyer-Peppas Analysis ([2]; Drug Loading 10%): 0.453± | Average n Values, Korsmeyer-Peppas Analysis, Mean ([2]; Mean over drug loadings): 0.50 ± 0.09 | average slope of cumulative drug released squared versus time in hours (Q^2/T) ([3]; Loading (A %) 1.0): 0.071 ± 0.001 | average slope of cumulative drug released squared versus time in hours (Q^2/T) ([3]; Loading (A %) 2.5): 0.388 ± 0.046 | average slope of cumulative drug released squared versus time in hours (Q^2/T) ([3]; Loading (A %) 5.0): 1.097 ± 0.218 | average slope of cumulative drug released squared versus time in hours (Q^2/T) ([3]; Loading (A %) 10): 15.821 ± 4.141 | relationship of Q^2/T to 2A in modified Higuchi plot ([3]; Table 10, FIG. 12 and FIG. 13): curvilinear relationship | chemical stability (hydrolysis products) [4]: excellent stability | loading ([5]; 3 mm device section post loaded from 25 mg/mL Travoprost in ethanol): approximately 13 mcg | release at 38 days ([5]; post-loaded uncoated 3 mm section): 99% | release profile ([5]; post-loaded uncoated 3 mm section, over 38 days): curvilinear/asymptotic profile
Compound: CC(C)OC(=O)CCC/C=C\C[C@@H]1[C@@H](/C=C/[C@@H](O)COc2cccc(C(F)(F)F)c2)[C@H](O)C[C@@H]1O [Travoprost]
